# Earlier results in PubChem BioAssay AID1259409 (Chemical Carcinogenesis Research Information System (CCRIS), 2018).
# Test system: rodent chemically induced tumor inhibition, incidence and multiplicity
# Test: CCRIS tumor inhibitor studies
# Conditions: Dose [Inhibitor]: 0, Route [Inhibitor]: ORAL, Promoter: NONE USED
structure (smiles),measurement,setting,value
CC(C(=O)O)c1cccc(C(=O)c2ccccc2)c1 (stereo unspecified),"tumour outcome (control, treated, inhibition, significance)","Carcinogen: AZOXYMETHANE, 25843-45-2, 100 PPM IN DIET BEGINNING 1 WK PRIOR TO CARCINOGEN TREATMENT FOR DURATION OF STUDY (STUDY DURATION: 54 WK), Species: RAT, Strain/Sex: F344/MALE, Target Tissue: Type of Lesion: COLON: ADENOCARCINOMA, Dose [Carcinogen]: 15 MG/KG/BW 1/WK FOR 2 WK","58%, 56%, 3%, not calculated"
same,"tumour outcome (control, treated, inhibition, significance)","Carcinogen: AZOXYMETHANE, 25843-45-2, 100 PPM IN DIET BEGINNING 1 WK TO CARCINOGEN TREATMENT FOR DURATION OF STUDY (STUDY DURATION: 54 WK), Species: RAT, Strain/Sex: F344/MALE, Target Tissue: Type of Lesion: COLON: ADENOMA, Dose [Carcinogen]: 15 MG/KG/BW 1/WK FOR 2 WK","6%, 3%, 50%, not calculated"
same,"tumour outcome (control, treated, inhibition, significance)","Carcinogen: AZOXYMETHANE, 25843-45-2, 200 PPM IN DIET BEGINNING 1 WK PRIOR TO CARCINOGEN TREATMENT FOR DURATION OF STUDY (STUDY DURATION: 54 WK), Species: RAT, Strain/Sex: F344/MALE, Target Tissue: Type of Lesion: COLON: ADENOCARCINOMA, Dose [Carcinogen]: 15 MG/KG/BW 1/WK FOR 2 WK","58%, 28%, 52%, p<0.01"
same,"tumour outcome (control, treated, inhibition, significance)","Carcinogen: AZOXYMETHANE, 25843-45-2, 200 PPM IN DIET BEGINNING 1 WK PRIOR TO CARCINOGEN TREATMENT FOR DURATION OF STUDY (STUDY DURATION: 54 WK), Species: RAT, Strain/Sex: F344/MALE, Target Tissue: Type of Lesion: COLON: ADENOMA, Dose [Carcinogen]: 15 MG/KG/BW 1/WK FOR 2 WK","6%, 6%, 0%, not significant"
same,"tumour outcome (control, treated, inhibition, significance)","Carcinogen: N-BUTYL-N-(4-HYDROXYBUTYL)NITROSAMINE, 3817-11-6, 40 MG/KG DIET FOR 24 WK BEGINNING 1 WK PRIOR TO CARCINOGEN TREATMENT (STUDY DURATION: 24 WK), Species: MOUSE, Strain/Sex: BDF/MALE, Target Tissue: Type of Lesion: URINARY BLADDER: TRANSITIONAL CELL CARCINOMA, Dose [Carcinogen]: 7.5 MG 1/WK FOR 8 WK","22/75 (29%), 5/73 (7%), 76%, p<0.01"
same,"tumour outcome (control, treated, inhibition, significance)","Carcinogen: N-BUTYL-N-(4-HYDROXYBUTYL)NITROSAMINE, 3817-11-6, 80 MG/KG DIET FOR 24 WK BEGINNING 1 WK PRIOR TO CARCINOGEN TREATMENT (STUDY DURATION: 24 WK), Species: MOUSE, Strain/Sex: BDF/MALE, Target Tissue: Type of Lesion: URINARY BLADDER: TRANSITIONAL CELL CARCINOMA, Dose [Carcinogen]: 7.5 MG 1/WK FOR 8 WK","22/75 (29%), 4/72 (6%), 79%, p<0.01"
